Experimental data: PMC9250534, “Synthesis and direct assay of large macrocycle diversities by combinatorial late-stage modification at picomole scale” (Nature Communications, 2022)
Numbered stars: 1 amine (or outer) side, 2 acyl side, 3 side chain; on linkers, the order of the positions; unused ones are H or OH. Bridge positions count the residues as written; N and C are the ends. Square brackets hold non-standard residues; d marks the D form. Side chains are listed from the residue outwards. Peptide text beside a SMILES is read from it. * marks the point of attachment. Cyclopropanecarbonyl(1-CN) = N#CC1(C(=O)*)CC1; Benzoyl(3,5-diOMe) = COc1cc(OC)cc(C(=O)*)c1; Benzoyl(3-CF3) = O=C(c1cccc(C(F)(F)F)c1)*; Benzoyl(3-Cl) = O=C(c1cccc(Cl)c1)*; Benzoyl(4-Cl) = O=C(c1ccc(Cl)cc1)*; Cysteamide = C(CS[*:3])N[*:1]; X1 = O=C(/C=C/c1ccccc1)*; Api = NC1(C(=O)O)CCNCC1; X17 = O=C(c1ccc(Br)o1)*; Dap = NC[C@H](N)C(=O)O; Inp = O=C(O)C1CCNCC1; Ms = CS(=O)(=O)*; Mpa = O=C(O)CCS

Target: MDM2 (Homo sapiens, UniProt Q00987)
Sequence (Q00987 whole entry): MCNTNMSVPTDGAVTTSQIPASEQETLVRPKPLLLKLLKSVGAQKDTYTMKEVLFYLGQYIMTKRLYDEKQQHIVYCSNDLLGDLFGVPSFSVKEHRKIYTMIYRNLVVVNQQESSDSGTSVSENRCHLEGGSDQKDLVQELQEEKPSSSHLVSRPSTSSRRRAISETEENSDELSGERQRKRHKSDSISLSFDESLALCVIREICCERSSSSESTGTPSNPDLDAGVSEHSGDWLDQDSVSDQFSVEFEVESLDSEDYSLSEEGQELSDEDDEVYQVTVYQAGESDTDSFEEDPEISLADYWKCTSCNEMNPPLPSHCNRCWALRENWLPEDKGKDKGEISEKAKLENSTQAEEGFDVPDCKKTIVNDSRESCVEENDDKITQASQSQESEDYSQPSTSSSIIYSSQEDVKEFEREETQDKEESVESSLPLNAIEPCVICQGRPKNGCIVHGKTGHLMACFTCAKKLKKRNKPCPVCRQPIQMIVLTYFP
Test: MDM2 binding screen: displacement of fluorescent p53 peptide probe FP53 (fluorescence polarization)
Conditions: for fraction fluorescent probe displaced, Screen: initial screen; for fraction fluorescent probe displaced, Screen / fraction fluorescent probe displaced, Replicate: crude macrocycle reactions
Procedure, shortened: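 Single-point screen: one fluorescence anisotropy reading at 25 °C (485 nm excitation, 535 nm emission) per macrocycle. Crude macrocycle reactions, final 10 µM, were scored for displacing the fluorescent p53 peptide from human MDM2.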

[1] = 10 µM macrocycle concentration, crude acylated macrocycle (scaffold Mpa-AA1-AA2-AA3 x carboxylic acid), p53-based fluorescent peptide, human MDM2

## O=C1CCSSCCNC(=O)C2(CCN(C(=O)c3ccc(Cl)cc3)CC2)NC(=O)[C@H](Cc2c[nH]c3ccccc23)NC(=O)c2cccc(c2)CN1 [X B5 W D6 Acid 25]
Acid 25
  fraction fluorescent probe displaced, Screen: 0.09
Acid 25, replicate
  fraction fluorescent probe displaced, Replicate: 0.28

## O=C1NC(Cc2c[nH]c3ccccc23)C(=O)N2CCN(C(=O)c3ccc(Cl)s3)CC2C(=O)NCCSSCCC(=O)N2CCCC12 (stereo not shown) [X B1 W D7 Acid 14]
Acid 14
  fraction fluorescent probe displaced, Screen: 0.08
Acid 14, replicate
  fraction fluorescent probe displaced, Replicate: 0.15

## O=C1CCSSCCNC(=O)c2cccc(c2)CNC(=O)C2CN(C(=O)c3ccc(Cl)cc3)CCN2C(=O)[C@H](Cc2c[nH]c3ccccc23)N1 (stereo partly shown) [X W D7 B5 Acid 25]
Acid 25
  fraction fluorescent probe displaced, Screen: 0.12
Acid 25, replicate
  fraction fluorescent probe displaced, Replicate: 0.10

## O=C1CCSSCCNC(=O)C2(CCN(C(=O)c3ccc(Cl)cc3)CC2)NC(=O)CCNC(=O)[C@H](Cc2c[nH]c3ccccc23)N1 [X W B2 D6 Acid 25]
Acid 25
  fraction fluorescent probe displaced, Screen: 0.09
Acid 25, replicate
  fraction fluorescent probe displaced, Replicate: 0.0465

## O=C1CCSSCCNC(=O)C2(CCN(C(=O)c3ccc(Cl)cc3)CC2)NC(=O)c2cccc(c2)CNC(=O)[C@H](Cc2ccccc2)N1 [X F B5 D6 Acid 25]
Acid 25
  fraction fluorescent probe displaced, Screen: 0.0569
Acid 25, replicate
  fraction fluorescent probe displaced, Replicate: 0.0465

## CS(=O)(=O)N1CCC(C(=O)NC[C@@H]2NC(=O)[C@@H]3CCCN3C(=O)CCSSCCNC(=O)[C@H](Cc3ccccc3)NC2=O)CC1 [X-B1-D3-F + A57] ([Mpa]P[Dap]([Inp-Ms])F-Cysteamide; disulfide 1-C)
[1]
  fraction fluorescent probe displaced: -0.1145

## O=C1NCCSSCCC(=O)N2CCC[C@H]2C(=O)NC2(CCN(C(=O)/C=C/c3ccccc3)CC2)C(=O)N[C@H]1Cc1ccccc1 [X B1 D6 F Acid 91] ([Mpa]P[Api](X1)F-Cysteamide; disulfide 1-C)
Acid 91
  fraction fluorescent probe displaced, Screen: -0.10
Acid 91, replicate
  fraction fluorescent probe displaced, Replicate: 0.05

## N#CC1(C(=O)NC[C@@H]2NC(=O)[C@@H]3CCCN3C(=O)CCSSCCNC(=O)[C@H](Cc3ccccc3)NC2=O)CC1 [X-B1-D3-F + A56] ([Mpa]P[Dap](Cyclopropanecarbonyl(1-CN))F-Cysteamide; disulfide 1-C)
[1]
  fraction fluorescent probe displaced: 0

## O=C(NCC1NC(=O)C(Cc2c[nH]c3ccccc23)NC(=O)C2CCCN(C2)C(=O)CCSSCCNC1=O)c1ccc(Cl)cc1 (stereo not shown) [X B4 W D3 Acid 25]
Acid 25
  fraction fluorescent probe displaced, Screen: 0.09
Acid 25, replicate
  fraction fluorescent probe displaced, Replicate: 0.22

## O=C1CCNC(=O)[C@H](Cc2c[nH]c3ccccc23)NC(=O)[C@H](CNC(=O)c2ccc(Cl)cc2)NC(=O)CCSSCCN1 [X D3 W B2 Acid 25]
Acid 25
  fraction fluorescent probe displaced, Screen: 0.15
Acid 25, replicate
  fraction fluorescent probe displaced, Replicate: 0.20

## O=C1CCSSCCNC(=O)C2(CCN(C(=O)c3ccc(Cl)s3)CC2)NC(=O)c2cccc(c2)CNC(=O)[C@H](Cc2c[nH]c3ccccc23)N1 [X W B5 D6 Acid 14]
Acid 14
  fraction fluorescent probe displaced, Screen: 0.14
Acid 14, replicate
  fraction fluorescent probe displaced, Replicate: 0.17

## O=C1N[C@@H](Cc2c[nH]c3ccccc23)C(=O)NC2(CCN(C(=O)c3ccc(Cl)cc3)CC2)C(=O)NCCSSCCC(=O)N2CCC[C@H]1C2 [X B4 W D6 Acid 25]
Acid 25
  fraction fluorescent probe displaced, Screen: 0.22
Acid 25, replicate
  fraction fluorescent probe displaced, Replicate: 0.20

## O=C1CCNC(=O)C2(CCN(C(=O)/C=C/c3ccccc3)CC2)NC(=O)CCSSCCNC(=O)[C@H](Cc2ccccc2)N1 [X D6 B2 F Acid 91]
Acid 91
  fraction fluorescent probe displaced, Screen: -0.0241
Acid 91, replicate
  fraction fluorescent probe displaced, Replicate: -0.00827

## O=C1NC(Cc2ccccc2)C(=O)N2CCN(C(=O)C=Cc3ccccc3)CC2C(=O)NCCSSCCC(=O)N2CCCC1C2 (stereo not shown) [X B4 F D7 Acid 91]
Acid 91
  fraction fluorescent probe displaced, Screen: 0.00268
Acid 91, replicate
  fraction fluorescent probe displaced, Replicate: -0.00827

## O=C1CCSSCCNC(=O)[C@H](Cc2c[nH]c3ccccc23)NC(=O)C2(CCN(C(=O)/C=C/c3ccccc3)CC2)NC(=O)CCN1 [X B2 D6 W Acid 91]
Acid 91
  fraction fluorescent probe displaced, Screen: 0.16
Acid 91, replicate
  fraction fluorescent probe displaced, Replicate: 0.07

## O=C1NCCSSCCC(=O)N2CC(NC(=O)c3ccc(Cl)s3)CC2C(=O)NC(Cc2c[nH]c3ccccc23)C(=O)NCc2cccc1c2 (stereo not shown) [X D5 W B5 Acid 14]
Acid 14
  fraction fluorescent probe displaced, Screen: 0.08
Acid 14, replicate
  fraction fluorescent probe displaced, Replicate: 0.0211

## O=C(NC[C@@H]1NC(=O)[C@@H]2CCCN2C(=O)CCSSCCNC(=O)[C@H](Cc2c[nH]c3ccccc23)NC1=O)c1ccc(Br)o1 [X-B1-D3-W + A21] ([Mpa]P[Dap](X17)W-Cysteamide; disulfide 1-C)
[1]
  fraction fluorescent probe displaced: 0.2551

## O=C1CCSSCCNC(=O)[C@H](Cc2c[nH]c3ccccc23)NC(=O)[C@@H]2CCCN2C(=O)C2(CCN(C(=O)/C=C/c3ccccc3)CC2)N1 [X D6 B1 W Acid 91] ([Mpa][Api](X1)PW-Cysteamide; disulfide 1-C)
Acid 91
  fraction fluorescent probe displaced, Screen: -0.05
Acid 91, replicate
  fraction fluorescent probe displaced, Replicate: 0.04

## O=C(NC[C@@H]1NC(=O)[C@@H]2CCCN2C(=O)CCSSCCNC(=O)[C@H](Cc2c[nH]c3ccccc23)NC1=O)c1cccc(Cl)c1 [X-B1-D3-W + A17] ([Mpa]P[Dap](Benzoyl(3-Cl))W-Cysteamide; disulfide 1-C)
[1]
  fraction fluorescent probe displaced: 0.2671

## O=C(C=Cc1ccccc1)NC1CC2C(=O)NCCSSCCC(=O)N3CCCC(C3)C(=O)NC(Cc3ccccc3)C(=O)N2C1 (stereo not shown) [X B4 F D5 Acid 91]
Acid 91
  fraction fluorescent probe displaced, Screen: -0.05
Acid 91, replicate
  fraction fluorescent probe displaced, Replicate: -0.0333

## O=C(NC[C@@H]1NC(=O)[C@@H]2CCCN2C(=O)CCSSCCNC(=O)[C@H](Cc2c[nH]c3ccccc23)NC1=O)c1ccc(Cl)cc1 [X-B1-D3-W + A25] ([Mpa]P[Dap](Benzoyl(4-Cl))W-Cysteamide; disulfide 1-C)
[1]
  fraction fluorescent probe displaced: 0.2195

## O=C(/C=C/c1ccccc1)NC[C@@H]1NC(=O)c2cccc(c2)CNC(=O)CCSSCCNC(=O)[C@H](Cc2ccccc2)NC1=O [X B5 D3 F Acid 91]
Acid 91
  fraction fluorescent probe displaced, Screen: -0.05
Acid 91, replicate
  fraction fluorescent probe displaced, Replicate: 0.0168

## O=C(NC1CC2C(=O)NCCSSCCC(=O)N3CCCC(C3)C(=O)NC(Cc3c[nH]c4ccccc34)C(=O)N2C1)c1ccc(Cl)cc1 (stereo not shown) [X B4 W D5 Acid 25]
Acid 25
  fraction fluorescent probe displaced, Screen: 0.15
Acid 25, replicate
  fraction fluorescent probe displaced, Replicate: 0.20

## O=C(NC[C@@H]1NC(=O)[C@@H]2CCCN2C(=O)CCSSCCNC(=O)[C@H](Cc2ccccc2)NC1=O)c1cccc(C(F)(F)F)c1 [X-B1-D3-F + A18] ([Mpa]P[Dap](Benzoyl(3-CF3))F-Cysteamide; disulfide 1-C)
[1]
  fraction fluorescent probe displaced: 0.09317

## O=C(/C=C/c1ccccc1)N[C@H]1C[C@H]2C(=O)N[C@@H](Cc3c[nH]c4ccccc34)C(=O)NCCC(=O)NCCSSCCC(=O)N2C1 [X D5 W B2 Acid 91]
Acid 91
  fraction fluorescent probe displaced, Screen: 0.00268
Acid 91, replicate
  fraction fluorescent probe displaced, Replicate: -0.0333

## O=C1NC(Cc2ccccc2)C(=O)NCCSSCCC(=O)N2CCN(C(=O)c3ccc(Cl)s3)CC2C(=O)N2CCCC1C2 (stereo not shown) [X D7 B4 F + Acid 14]
Crude reaction of macrocycle scaffold with Acid 14, (initial screen)
  fraction fluorescent probe displaced: -0.0337
Crude reaction of macrocycle scaffold with Acid 14, replicate
  fraction fluorescent probe displaced: 0.07

## O=C(NC[C@@H]1NC(=O)[C@H](Cc2c[nH]c3ccccc23)NC(=O)[C@@H]2CCCN2C(=O)CCSSCCNC1=O)c1ccc(Cl)cc1 [X B1 W D3 Acid 25] ([Mpa]PW[Dap](Benzoyl(4-Cl))-Cysteamide; disulfide 1-C)
Acid 25
  fraction fluorescent probe displaced, Screen: 0.25
Acid 25, replicate
  fraction fluorescent probe displaced, Replicate: 0.25

## O=C(/C=C/c1ccccc1)NC[C@@H]1NC(=O)[C@H](Cc2ccccc2)NC(=O)CCNC(=O)CCSSCCNC1=O [X B2 F D3 Acid 91]
Acid 91
  fraction fluorescent probe displaced, Screen: 0.03
Acid 91, replicate
  fraction fluorescent probe displaced, Replicate: -0.11

## O=C(C=Cc1ccccc1)NC1CC2C(=O)NCCSSCCC(=O)NC(Cc3c[nH]c4ccccc34)C(=O)NCc3cccc(c3)C(=O)N2C1 (stereo not shown) [X W B5 D5 Acid 91]
Acid 91
  fraction fluorescent probe displaced, Screen: 0.08
Acid 91, replicate
  fraction fluorescent probe displaced, Replicate: 0.17

## O=C1NC(Cc2ccccc2)C(=O)NC2(CCN(C(=O)c3ccc(Cl)cc3)CC2)C(=O)NCCSSCCC(=O)N2CCCC1C2 (stereo not shown) [X B4 F D6 + Acid 25]
Crude reaction of macrocycle scaffold with Acid 25, (initial screen)
  fraction fluorescent probe displaced: 0.09
Crude reaction of macrocycle scaffold with Acid 25, replicate
  fraction fluorescent probe displaced: 0.17

## O=C1CCSSCCNC(=O)[C@H](CNC(=O)c2ccc(Cl)s2)NC(=O)[C@H]2CCCN(C2)C(=O)[C@H](Cc2ccccc2)N1 [X F B4 D3 Acid 14]
Acid 14
  fraction fluorescent probe displaced, Screen: 0.23
Acid 14, replicate
  fraction fluorescent probe displaced, Replicate: 0.17

## O=C(/C=C/c1ccccc1)NC[C@@H]1NC(=O)CCNC(=O)[C@H](Cc2c[nH]c3ccccc23)NC(=O)CCSSCCNC1=O [X W B2 D3 Acid 91]
Acid 91
  fraction fluorescent probe displaced, Screen: 0.08
Acid 91, replicate
  fraction fluorescent probe displaced, Replicate: 0.09

## O=C1CCSSCCNC(=O)C(Cc2c[nH]c3ccccc23)NC(=O)c2cccc(c2)CNC(=O)C2(CCN(C(=O)c3ccc(Cl)s3)CC2)N1 (stereo not shown) [X D6 B5 W Acid 14]
Acid 14
  fraction fluorescent probe displaced, Screen: 0.23
Acid 14, replicate
  fraction fluorescent probe displaced, Replicate: 0.25

## O=C1CCSSCCNC(=O)C(Cc2ccccc2)NC(=O)C2(CCN(C(=O)c3ccc(Cl)s3)CC2)NC(=O)c2cccc(c2)CN1 (stereo not shown) [X B5 D6 F Acid 14]
Acid 14
  fraction fluorescent probe displaced, Screen: -0.0116
Acid 14, replicate
  fraction fluorescent probe displaced, Replicate: 0.05

## COc1cc(OC)cc(C(=O)NC[C@@H]2NC(=O)[C@@H]3CCCN3C(=O)CCSSCCNC(=O)[C@H](Cc3c[nH]c4ccccc34)NC2=O)c1 [X-B1-D3-W + A4] ([Mpa]P[Dap](Benzoyl(3,5-diOMe))W-Cysteamide; disulfide 1-C)
[1]
  fraction fluorescent probe displaced: 0.03512

## O=C(/C=C/c1ccccc1)NC[C@@H]1NC(=O)[C@H]2CCCN(C2)C(=O)[C@H](Cc2ccccc2)NC(=O)CCSSCCNC1=O [X F B4 D3 Acid 91]
Acid 91
  fraction fluorescent probe displaced, Screen: 0.19
Acid 91, replicate
  fraction fluorescent probe displaced, Replicate: 0.17

## O=C(C=Cc1ccccc1)NC1CC2C(=O)N3CCCC3C(=O)NCCSSCCC(=O)NC(Cc3ccccc3)C(=O)N2C1 (stereo not shown) [X F D5 B1 Acid 91]
Acid 91
  fraction fluorescent probe displaced, Screen: -0.05
Acid 91, replicate
  fraction fluorescent probe displaced, Replicate: -0.11
